Experiment [1] can be described thus: Ratio of inhibitory concentration of compound against microtubule disassembly to that of inhibitory concentration of paclitaxel; Inactive. The experiment is classed as functional.
Experiment [2] concerns KB. Nature of the experiment: Concentration required for inhibition of 50% human […] KB cell line proliferation after 72 hr of incubation. The experiment is classed as functional, cell-based.
Experiment [3] deals with HCT-116. In words: Concentration required for inhibition of 50% human colon HCT 116 cell line proliferation after 72 hr of incubation. Particulars: HCT-116, 72 h. In kind it is functional, cell-based.
The nature of experiment [4]: Ratio of inhibitory concentration of compound against microtubule disassembly to that of inhibitory concentration of paclitaxel. The experiment is classed as functional.
Experiment [5] relates to MCF7. Nature of the experiment: Concentration required for inhibition of 50% human breast MCF 7 cell line proliferation after 72 hr of incubation. In kind it is functional, cell-based. Particulars: MCF7, 72 h.
A short description of experiment [6]: Concentration required to inhibit 50% of rate of microtubule disassembly. The experiment is classed as functional.

pIC50: −log10 of the molar value. The source made the active and inactive calls. The rule behind the calls is not given here. Some results are limits rather than exact numbers.

By pIC50 is commonly meant the negative decadic logarithm of the IC50, by convention in mol/L. Read a low pIC50 as a large IC50. In the case of `C=CCCCCC(=O)N[C@@H](c1ccccc1)[C@@H](O)C(=O)O[C@H]1C[C@@]2(O)[C@@H](OC(=O)c3ccc(CC=C)cc3)C3[C@](C)(C(=O)[C@H](O)C(=C1C)C2(C)C)[C@@H](O)C[C@H]1OC[C@@]31OC(C)=O` (stereo partly drawn), the Ratio result in experiment [1] is “inactive”. Moreover, in experiment [2], the pIC50 was 7.40.
Take `CC(=O)O[C@@]12CO[C@@H]1C[C@H](O)[C@@]1(C)C(=O)[C@H](O)C3=C(C)[C@@H]4C[C@@](O)([C@@H](OC(=O)c5cccc(c5)C/C=C\CCCCC(=O)N[C@@H](c5ccccc5)[C@@H](O)C(=O)O4)C12)C3(C)C` (stereo partly drawn): the results for the pIC50 in experiment [3], in experiment [5] and in experiment [2] were 5.10, < 5.00 and 6.70, respectively. Further, the Ratio in experiment [4] is 1.4.
Take `CC(=O)O[C@@]12CO[C@@H]1C[C@H](O)[C@@]1(C)C(=O)[C@H](O)C3=C(C)[C@@H]4C[C@@](O)([C@@H](OC(=O)c5ccccc5C/C=C/CCCCC(=O)N[C@@H](c5ccccc5)[C@@H](O)C(=O)O4)C12)C3(C)C` (stereo partly drawn): the results for the pIC50 in experiment [3], in experiment [5] and in experiment [2] were 5.62, 5.68 and 6.15, respectively. Further, the Ratio in experiment [4] came to 6.
Consider `CC(=O)O[C@@]12CO[C@@H]1C[C@H](O)[C@@]1(C)C(=O)[C@H](O)C3=C(C)[C@@H]4C[C@@](O)([C@@H](OC(=O)CCCC/C=C\CCCCC(=O)N[C@@H](c5ccccc5)[C@@H](O)C(=O)O4)C12)C3(C)C` (stereo partly drawn), for which the pIC50 was < 5.00 in experiment [3], < 5.00 in experiment [5] and 5.10 in experiment [2]. Also, the Ratio in experiment [4] turned out to be 7.3.
For the compound `CC(=O)O[C@@]12CO[C@@H]1C[C@H](O)[C@@]1(C)C(=O)[C@H](O)C3=C(C)[C@@H]4C[C@@](O)([C@@H](OC(=O)c5ccc(cc5)C/C=C\CCCCC(=O)N[C@@H](c5ccccc5)[C@@H](O)C(=O)O4)C12)C3(C)C` (stereo partly drawn), in experiment [1], the Ratio result was “inactive”. In experiment [2], this compound showed a pIC50 of 6.55.
As for `CC(=O)O[C@@]12CO[C@@H]1C[C@H](O)[C@@]1(C)C(=O)[C@H](O)C3=C(C)[C@@H]4C[C@@](O)([C@@H](OC(=O)c5cccc(c5)C/C=C/CCCCC(=O)N[C@@H](c5ccccc5)[C@@H](O)C(=O)O4)C12)C3(C)C` (stereo partly drawn), the figures for the pIC50 in experiment [3], in experiment [5] and in experiment [2] were 6.15, 6.46 and 7.15, respectively. For the same compound, the Ratio in experiment [4] came out at 1.
Take `C=CCCCCC(=O)N[C@@H](c1ccccc1)[C@@H](O)C(=O)O[C@H]1C[C@@]2(O)[C@@H](OC(=O)c3cccc(CC=C)c3)C3[C@](C)(C(=O)[C@H](O)C(=C1C)C2(C)C)[C@@H](O)C[C@H]1OC[C@@]31OC(C)=O` (stereo partly drawn): the Ratio in experiment [4] is 1. This compound gave a negative logarithm of the IC50 (pIC50) in experiment [2] of 8.00.
Turning to `CC(=O)O[C@H]1C(=O)[C@@]2(C)[C@H]([C@H](OC(=O)c3ccccc3)[C@]3(O)C[C@H](OC(=O)[C@H](O)[C@@H](NC(=O)c4ccccc4)c4ccccc4)C(C)=C1C3(C)C)[C@]1(OC(C)=O)CO[C@@H]1C[C@@H]2O` [PACLITAXEL], the negative-log IC50 (pIC50) in experiment [6] was 6.00.
`CC(=O)O[C@@]12CO[C@@H]1C[C@H](O)[C@@]1(C)C(=O)[C@H](O)C3=C(C)[C@@H](OC(=O)[C@H](O)[C@@H](NC(=O)OC(C)(C)C)c4ccccc4)C[C@@](O)([C@@H](OC(=O)c4ccccc4)[C@H]21)C3(C)C` [DOCETAXEL]: the negative-log IC50 (pIC50) in experiment [3] was 8.66; in experiment [5], 9.00; in experiment [2] it was 9.52. Moreover, the Ratio in experiment [4] amounted to 0.5.
With `CC(=O)O[C@@]12CO[C@@H]1C[C@H](O)[C@@]1(C)C(=O)[C@H](O)C3=C(C)[C@@H]4C[C@@](O)([C@@H](OC(=O)c5ccc(cc5)C/C=C/CCCC(=O)N[C@@H](c5ccccc5)[C@@H](O)C(=O)O4)C12)C3(C)C` (stereo partly drawn), in experiment [1], the Ratio result was “inactive”. For the same compound, the pIC50 in experiment [2] was 5.80.
Take `C=CCCCCC(=O)N[C@@H](c1ccccc1)[C@@H](O)C(=O)O[C@H]1C[C@@]2(O)[C@@H](OC(=O)c3ccccc3CC=C)C3[C@](C)(C(=O)[C@H](O)C(=C1C)C2(C)C)[C@@H](O)C[C@H]1OC[C@@]31OC(C)=O` (stereo partly drawn): the results for the pIC50 in experiment [3], in experiment [5] and in experiment [2] were 8.00, 8.05 and 8.49, respectively. The Ratio in experiment [4] came to 1.2.

The values above are taken from ChEMBL document CHEMBL1138846, “Synthesis of C2-C3'N-linked macrocyclic taxoids. Novel docetaxel analogues with high tubulin activity” (J Med Chem, 2004).
